From patent US6150335A, “Tic-containing opioid dipeptide derivatives useful as analgesics” (Astra AB, priority 1996, dated 2000)

How the values were obtained:
μ opioid receptor = molecular target: T1, μ opioid receptor (Rattus norvegicus, UniProt P33535); assay: μ opioid receptor binding assay, displacement of [3H]DAMGO from rat brain membranes; conditions: [3H]DAMGO 0.7 nM, Cheng-Prusoff
T1 construct: Male Sprague-Dawley rats (300-350 g) from the Canadian Breeding Laboratories were decapitated and after removal of the cerebellum the brains were homogenized; from tissue; host or cells: rat brain (without cerebellum) membranes, male Sprague-Dawley
T1 sequence (P33535 whole entry): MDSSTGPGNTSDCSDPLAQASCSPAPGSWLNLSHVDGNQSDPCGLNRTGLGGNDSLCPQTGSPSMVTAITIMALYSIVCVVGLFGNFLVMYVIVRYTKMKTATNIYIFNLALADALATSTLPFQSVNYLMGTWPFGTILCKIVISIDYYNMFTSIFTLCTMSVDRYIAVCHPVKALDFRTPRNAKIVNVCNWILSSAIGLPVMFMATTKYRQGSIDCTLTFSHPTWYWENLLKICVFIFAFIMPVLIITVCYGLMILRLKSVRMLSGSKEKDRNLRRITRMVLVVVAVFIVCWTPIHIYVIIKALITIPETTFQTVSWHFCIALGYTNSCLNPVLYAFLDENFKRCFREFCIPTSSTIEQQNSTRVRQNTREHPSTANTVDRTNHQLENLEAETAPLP
Description: (§1) μ and δ opioid receptor binding constants (Ki^μ,Ki^δ) of the compounds were determrined by displacement of relatively selective μ and δ radioligands from binding sites in rat brain membrane preparations calculated from the measured IC50 values on the basis of the equation by Cheng and Prusoff, (Y. C. Cheng and W. H. Prusoff Biochem. Pharmnacol. 22, 3099-3102 (1973)).
(§2) The μ-, δ- and κ-opioid receptor affinities of all new analogs were determined in binding assays based on displacement of μ-, δ- and κ-selective radioligands from rat brain membrane binding sites. In the case of κ-ligands guinea pig brain homogenates were used, since the relative proportion of κ-binding sites is higher in guinea pig brain than in rat brain. The experimental procedure being used in our laboratory represents a modified version of the binding assay described by Pasternak et al. (Mol. Pharnacol. 11, 340-351 (1975)). Male Sprague-Dawley rats (300-350 g) from the Canadian Breeding Laboratories were decapitated and after removal of the cerebellum the brains were homogenized in 30 volumes of ice-cold standard buffer (50 mnM Tris HCl , pH 7.7). After centrifugation at 30,000×g for 30 min at 4° C. the membranes were reconstituted in the original volume of standard buffer and incubated for 30 min at 37° C. (to release bound endogenous ligands). Subsequent centrifugation and resuspension of the pellet in the initial volume of fresh standard buffer yielded the final membrane suspension. Aliquots (2 ml) of the membrane preparations were incubated for 1-2 h at 25° C. with 1 ml standard buffer containing the peptide to be tested and one of the following radioligands at the final concentration indicated: [^3 H]DAMGO, μ-selective, 0.7 nM; [^3 H]DSLET, μ-selective, 1.0 nM; and [^3 H]U69,563, κ-selective, 0.5 nM. The incubation was terminated by filtration through Whatman GF/B filters under vacuum at 4° C. Following two washings with 5 ml portions of ice-cold standard buffer the filters were transferred to scintillation vials and treated with 1 ml Protosol (New England Nuclear) for 30 min prior to addition of 0.5 ml acetic acid and 10 ml Aquasol (New England Nuclear). After shaking for 30 min the vials were counted at an efficiency of 40-45%. All experiments were performed in duplicate and repeated at least three times. Specific binding of each of the three radioligands was defined by performing incubations in the presence of cold DAMGO, DSLET and U69,563, respectively, at a concentration of 1 micromolar. Values of half-maximal inhibition (IC50) of specific binding were obtained graphically from semilogarithmic plots. From the measured IC50-values, binding inhibition constants (Ki) were calculated based on Cheng and Prusoff's equation (Biochem. Pharmacol. 22, 3099-3102 (1973)). Ratios of the Ki -values determined in the μ-, δ- and κ-representative binding assays are a measure of the receptor selectivity of the compound under investigation (e.g. Ki^μ /Ki^μ indicates the selectivity for δ-receptors versus μ-receptors).

δ opioid receptor = molecular target: T2, δ opioid receptor (Rattus norvegicus, UniProt P33533); assay: δ opioid receptor binding assay, displacement of [3H]DSLET from rat brain membranes; conditions: for Ki: rat brain membranes, [3H]DSLET 1.0 nM, Cheng-Prusoff; for Ki^μ/Ki^δ: δ versus μ receptor selectivity
T2 construct: Male Sprague-Dawley rats (300-350 g) from the Canadian Breeding Laboratories were decapitated and after removal of the cerebellum the brains were homogenized; from tissue; host or cells: rat brain (without cerebellum) membranes, male Sprague-Dawley
T2 sequence (P33533 whole entry): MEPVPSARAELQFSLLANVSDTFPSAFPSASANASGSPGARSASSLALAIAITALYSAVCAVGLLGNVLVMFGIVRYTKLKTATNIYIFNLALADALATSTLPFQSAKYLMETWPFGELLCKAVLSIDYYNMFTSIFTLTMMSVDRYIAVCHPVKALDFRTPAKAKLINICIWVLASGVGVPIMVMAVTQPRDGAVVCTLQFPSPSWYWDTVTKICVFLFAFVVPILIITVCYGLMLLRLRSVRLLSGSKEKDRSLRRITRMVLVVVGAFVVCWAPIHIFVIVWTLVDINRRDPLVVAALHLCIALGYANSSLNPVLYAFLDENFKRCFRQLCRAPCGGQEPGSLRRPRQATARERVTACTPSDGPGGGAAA
Description: as §1
as §2, with “[…];” for “[^3 H]DSLET, μ-selective, 1.0 nM;”

mouse vas deferens (MVD) = assay: Mouse vas deferens (MVD) bioassay: inhibition of electrically evoked contractions; format: cell-based; conditions: for IC50 / MVD IC50: inhibition of electrically evoked contractions, normalized with [Leu5]enkephalin standard, effect mostly δ-mediated; for GPI/MVD IC50 ratio: ratio of GPI IC50 to MVD IC50; for δ opioid agonist character (full / partial): conclusion from MVD and GPI assays
Description: (§3) Bioassays based on inhibition of electrically evoked contractions of the mouse vas deferens (MVD) and of the guinea pig ileum (GPI) were performed. In the GPI assay the opioid effect is primarily mediated by μ opioid receptors, whereas in the MVD assay the inhibition of the contractions is mostly due to interaction with δ opioid receptors.
(§4) The GPI and MVD bioassays were carried out as reported in P. W. Schiller et al., Biochem. Biophys. Res. Commun. 85, 1332-1338 (1978) and J. DiMaio et al., J. Med. Chem. 25, 1432-1438 (1982). A log-dose response curve was determined with [Leu^5 ]enkephalin as standard for each ileum and vas preparation, and IC50 values of the compounds being tested were normalized according to A. A. Waterfield et al., Eur. J. Pharmacol. 58, 11-18 (1979).

guinea pig ileum (GPI) = assay: Guinea pig ileum (GPI) bioassay: inhibition of electrically evoked contractions; format: cell-based; conditions: normalized with [Leu5]enkephalin standard, effect primarily μ-mediated
Description: as §3, §4

SMILES | Ki (μ opioid receptor) | Ki (δ opioid receptor) | Ki^μ/Ki^δ (δ opioid receptor) | IC50 (mouse vas deferens (MVD)) | GPI/MVD IC50 ratio (mouse vas deferens (MVD)) | IC50 (guinea pig ileum (GPI)) | δ opioid agonist character (full / partial) (mouse vas deferens (MVD)) | MVD IC50 (mouse vas deferens (MVD))
N[C@@H](Cc1ccc(O)cc1)C(=O)N1Cc2ccccc2C[C@H]1C(=O)NCCc1ccccc1[N+](=O)[O-] [Example 29] | 355 ± 13 nM | 7.7 ± 0.45 nM | 46.1 | 29.1 ± 10.6 nM | 63.6 | 1850 ± 540 nM |  | 
NC(Cc1ccc(O)cc1)C(=O)N1Cc2ccccc2CC1C(=O)NC1CC1c1ccccc1 (single isomer, unassigned) [Example 22] | 11.5 ± 1.1 nM | 1.36 ± 0.15 nM | 8.46 | 7.31 ± 2.3 nM | 70.9 | 518 ± 147 nM |  | 
N[C@@H](Cc1ccc(O)cc1)C(=O)N1Cc2ccccc2C[C@H]1C(=O)NCC(c1ccc(Cl)cc1)c1ccc(Cl)cc1 [Example 26] | 1560 ± 60 nM | 2.82 ± 0.07 nM | 553 | 397 ± 33 nM | > 25.2 | > 10000 nM |  | 
NC(=O)C(CNC(=O)[C@@H]1Cc2ccccc2CN1C(=O)[C@@H](N)Cc1ccc(O)cc1)c1ccccc1 (single isomer, unassigned) [Example 18] | 191 ± 19 nM | 22.8 ± 2.5 nM | 8.38 |  |  | > 10000 nM | partial δ agonists | partial agonist
N[C@@H](Cc1ccc(O)cc1)C(=O)N1Cc2ccccc2C[C@H]1C(=O)NCCc1ccccc1Br [Example 5] | 23.3 ± 7.7 nM | 1.24 ± 0.27 nM | 18.8 | 13.9 ± 1.9 nM | 44.1 | 613 ± 26 nM |  | 
N[C@@H](Cc1ccc(O)cc1)C(=O)N1Cc2ccccc2C[C@H]1C(=O)NCC(CO)c1ccccc1 (single isomer, unassigned) [Example 28] | 242 ± 20 nM | 7.8 ± 2.8 nM | 31.0 | 92.6 ± 6 nM | > 108 | > 10000 nM |  | 
Nc1ccc(C(CNC(=O)[C@@H]2Cc3ccccc3CN2C(=O)[C@@H](N)Cc2ccc(O)cc2)c2ccc(N)cc2)cc1 [Example 25] | 5340 ± 700 nM | 2.67 ± 0.83 nM | 2000 | 7.81 ± 0.48 nM | > 1280 | > 10000 nM |  | 
CCOC(=O)C(CNC(=O)[C@@H]1Cc2ccccc2CN1C(=O)[C@@H](N)Cc1ccc(O)cc1)c1ccccc1 (single isomer, unassigned) [Example 15] | 886 ± 172 nM | 0.569 ± 0.08 nM | 1560 | 1.28 ± 0.18 nM | >7810 | > 10000 nM |  | 
CCOC(=O)C(CNC(=O)[C@@H]1Cc2ccccc2CN1C(=O)[C@@H](N)Cc1ccc(O)cc1C)c1ccccc1 (single isomer, unassigned) [Example 31] | 79.7 ± 2.3 nM | 1.22 ± 0.04 nM | 65.3 | 2.24 ± 0.33 nM | 388 | 869 ± 209 nM |  | 
N[C@@H](Cc1ccc(O)cc1)C(=O)N1Cc2ccccc2C[C@H]1C(=O)NCCc1ccccc1-c1ccccc1 [Example 7] | 73.5 ± 7.1 nM | 4.76 ± 1.7 nM | 15.4 | 418 ± 55 nM | > 23.9 | > 10000 nM |  | 
CCOC(=O)C(CNC(=O)[C@@H]1Cc2ccccc2CN1C(=O)[C@@H](N)Cc1ccc(O)cc1C)c1ccccc1 (single isomer, unassigned) [Example 30] | 164 ± 11 nM | 1.63 ± 0.27 nM | 101 | 1.62 ± 0.12 nM | 510 | 826 ± 183 nM |  | 
NC(=O)C(CNC(=O)[C@@H]1Cc2ccccc2CN1C(=O)[C@@H](N)Cc1ccc(O)cc1)c1ccccc1 (single isomer, unassigned) [Example 17] | 73.7 ± 0.6 nM | 21.5 ± 4.2 nM | 3.43 | 34 ± 2.9 nM | 62.9 | 2140 ± 470 nM |  | 
NC(Cc1ccc(O)cc1)C(=O)N1Cc2ccccc2CC1C(=O)NC1CC1c1ccccc1 (single isomer, unassigned) [Example 21] | 38 ± 11.2 nM | 4.13 ± 0.27 nM | 9.20 |  |  | 1600 ± 500 nM | partial δ agonists | partial agonist
N[C@@H](Cc1ccc(O)cc1)C(=O)N1Cc2ccccc2C[C@H]1C(=O)N[C@H]1CCc2ccccc2C1 [Example 19, H-Tyr-Tic-2-S-At (At = aminotetralin)] | 55.8 ± 6.3 nM | 4.55 nM | 12.3 | 38.1 nM | 44.9 | 1710 ± 230 nM |  | 
N[C@@H](Cc1ccc(O)cc1)C(=O)N1Cc2ccccc2C[C@H]1C(=O)NCC(C1CCCCC1)C1CCCCC1 [Example 23] | 52.4 ± 2.5 nM | 11.3 ± 3.3 nM | 4.64 | 21.5 ± 6.8 nM | 73.5 | 1580 ± 610 nM |  | 
N[C@@H](Cc1ccc(O)cc1)C(=O)N1Cc2ccccc2C[C@H]1C(=O)NCC(CO)c1ccccc1 (single isomer, unassigned) [Example 27] | 70.3 ± 2.3 nM | 1.26 ± 0.11 nM | 55.8 | 13.6 ± 2.2 nM | 38.7 | 526 ± 51 nM |  | 
CCOC(=O)C(CNC(=O)[C@@H]1Cc2ccccc2CN1C(=O)[C@@H](N)Cc1ccc(O)cc1)c1ccccc1 (single isomer, unassigned) [Example 16] | 153 ± 5 nM | 3.03 ± 0.66 nM | 50.5 | 8.64 ± 1.31 nM | >1160 | > 10000 nM |  | 
